Laboratory results taken from publication PMC4913735, “Non‐glycosidic compounds can stimulate both human and mouse iNKT cells” (European Journal of Immunology, 2016).

Experiments:
murine iNKT cells = assay: In vivo iNKT‐cell activation in mice: serum IFN‐γ/IL‐4 ELISA and splenic DC maturation; set-up: species or system C57BL/6 mice; conditions: for DC maturation (CD40 on CD11c+ cells) in iNKT cell deficient mice: CD1d−/− mice
Method: Figure 2 Enhanced in vivo potency of ThrCer 6. (A) Equilibrium binding and kinetics measurements of a soluble mouse iNKT‐cell TCR were assessed for mCD1d molecules refolded with α‐GalCer, ThrCer 6 and ThrCer 7. K d values (μM) were calculated from equilibrium binding. (B–D) Mice were immunized with 1 μg lipids i.v. and (B) IL‐4 and (C) IFN‐γ were detected by ELISA in blood sera at either 2 or 18 h, respectively. (D) At 18 h, immunized mice were sacrificed and splenocytes stained with anti‐CD11c and anti‐CD86 antibodies to determine the extent of maturation by the expression of CD86 on gated DCs (CD11c^+) using flow cytometry. (E and F) Mice were immunized i.v. with titrating doses of α‐GalCer, ThrCer, ThrCer 6, and ThrCer 7 and (E) IFN‐γ and (F) IL‐4 were detected in blood sera at 2, 12, and 18 h by ELISA. Median fluorescent intensity = MFI. (B–F) Data are shown as mean ± SEM (n = 3/group) and are representative of two independent experiments (A), three experiments (B–D), or a single experiment (E and F). *p < 0.05; Student's t‐test.
(§1) Concentrations of murine IFN‐γ and IL‐4 in serum were determined using standard sandwich ELISAs using the R4‐6A2 capture Ab for IFN‐γ (eBioscience), and the ID11 capture Ab for IL‐4 (Endogen). Biotinylated XMG1.2 (eBioscience) was used as the detection Ab for IFN‐γ and biotinylated BVD6‐24G2 (eBioscience) was used as the detection Ab for IL‐4. Human IFN‐γ in supernatants was determined using the capture Ab NIB42 (BD Pharmingen) and biotinylated 4S.B3 (BD Pharmingen) as the detection Ab.
Lipid compounds were solubilized in 150 mM NaCl and 0.5% Tween 20 (vehicle). All substances were diluted in PBS and administered either i.v., or i.m. Unless stated otherwise, doses used per injection were 400 μg OVA (Sigma) and 100 ng of lipid compounds or vehicle.
(§2) Human iNKT‐cells were expanded as described previously 34. For lipid titration studies, hCD1d C1R cells were pulsed with lipids overnight and following washes, cocultured with human iNKT cells. The presence of IFN‐γ was detected in supernatants by ELISA 12. For DC maturation studies, immature DCs were collected on day 4 and pulsed with lipids and iNKT cells 34. DC maturation was determined by the upregulation of CD86 by flow cytometry on a FACSCalibur with CellQuest software (BD) and analyzed with FlowJo software (Tree Star). For in vivo murine APC phenotype analysis the expression of CD86 or CD40 on CD11c^+ APCs from spleen were determined after 18 h post i.v. of 1 μg lipids on a CyAn cytometer and analyzed with FlowJo software (Tree Star).

human iNKT cells = assay: Human iNKT‐cell activation by lipid‐pulsed hCD1d C1R cells, IFN‐γ ELISA; format: cell-based; conditions: compared with α‐GalCer; particularly below 1 ng/mL
Method: To this end, hCD1d‐expressing C1R cells were loaded overnight with serial dilutions of lipids (α‐GalCer, ThrCer, ThrCer 6, and ThrCer 7) and then incubated with human iNKT cells. iNKT‐cell activation was assessed by measuring IFN‐γ production in the supernatant by ELISA.
as §1
as §2, with “For lipid titration studies, hCD1d C1R cells were pulsed with lipids overnight and following washes, cocultured with human iNKT cells.” left out, “For DC maturation studies, immature DCs were collected on day 4 and pulsed with lipids and iNKT cells 34.” left out

iNKT hybridoma DN32.D3 = assay: CD11c+ splenocytes from lipid‐injected Jα18 knockout mice stimulating DN32.D3 (IL‐2 ELISA); format: in vivo; conditions: 1 μg i.v.; for Decline in stimulation of DN32.D3 by CD11c+ cells, 64 h compared with 12 h post injection: Jα18 knockout mice, IL‐2
Method: Figure 6 Enhanced bioavailability of ThrCer 6 as compared to ThrCer and α‐GalCer. (A) Mouse BMDCs were pulsed for 6 h with 100, 10, or 1 ng/mL of indicated iNKT‐cell agonists. Cells were washed and suspended in tissue culture medium in the absence of iNKT‐cell agonists for up to 24 h. Washed BMDCs were then cocultured with the murine iNKT cell hybridoma DN32.D3. Hundred percentage activation was defined for each iNKT‐cell agonist as the IL‐2 produced by DN32.D3 cocultured with BMDCs that were left with iNKT‐cell agonists throughout the pre coculture period (30 h). Diminished bioavailability is expressed as a percentage of the maximum DN32.D3 activation by each iNKT‐cell agonist. Number of replicates = 4. (B and C) Jα18 knockout mice were injected i.v. with 1 μg of ThrCer 6, α‐GalCer, or vehicle. Twelve hours or 64 h later, CD11c^+‐purified cells were cocultured with 5 × 10^4 DN32.D3 at different ratios. (B) IL‐2 in the supernatant from coculture of DN32.D3 with CD11c^+ cells isolated after 64 h was determined by ELISA. (C) IL‐2 levels of the same culture as percentage of the IL‐2 produced by DN32.D3 coincubated with CD11c^+ cells isolated 12 h after injection of lipids. […] Significance was calculated between α‐GalCer and ThrCer 6. *p < 0.05, **p < 0.01, ***p < 0.001, ****p < 0.0001; Student's t‐test.
To rule out the possibility that the results of these experiments could be modulated by the in vivo killing of CD11c^+ cells by iNKT cells, Jα18 knockout mice, lacking iNKT cells, were injected with ThrCer 6, α‐GalCer or vehicle, and then culled 12 or 64 h later. CD11c^+ cells enriched from the spleens were then coincubated with DN32.D3 for 17 h and IL‐2 production was measured in the supernatant (Fig. 6B and C).
Levels of iNKT‐cell agonists, presented by CD1d on the surface of cells, were assessed by the amount of IL‐2 secreted by iNKT hybridoma DN32.D3 coincubated with the presenting cells for 17–24 h. […] Levels of IL‐2 in the supernatant were determined by ELISA. iNKT‐cell hybridoma DN32.D3 was kindly provided by A. Bendelac 45.

Row | Decline in stimulation of DN32.D3 by CD11c+ cells, 64 h compared with 12 h post injection (iNKT hybridoma DN32.D3) | Activation of DN32.D3 by splenic CD11c+ cells 64 h after in vivo injection (iNKT hybridoma DN32.D3; compared with α‐GalCer‐injected mice) | SMILES | Ability to activate murine iNKT cells and mature DC in vivo (murine iNKT cells; 1 μg i.v., serum IL‐4 2 h, IFN‐γ 18 h, CD86 on CD11c+ DC, greater than ThrCer, similar to α‐GalCer) | DC maturation (CD40 on CD11c+ cells) in iNKT cell deficient mice (murine iNKT cells; 1 μg i.v.) | Serum IFN‐γ secretion after intramuscular injection (murine iNKT cells; i.m., 18 h post injection, compared with α‐GalCer) | Serum IFN‐γ secretion, in vivo dose titration (murine iNKT cells; i.v., after 12 and 18 h, compared with α‐GalCer) | Activation of human iNKT cells (IFN‐γ in supernatant) (human iNKT cells)
1 | less than 50% | more potent activators of DN32.D3 cells | CCCCCCCCCCCCCCCCCCCCCCCCCC(=O)N[C@@H](CO[C@H]1CC[C@H](O)[C@H](O)[C@H]1O)[C@H](O)[C@H](O)CCCCCCCCCCCCCC [ThrCer 6] | marked increase | do not mature DCs | higher | significantly enhanced | greater activation of human iNKT cells
2 | more than 90% | – | CCCCCCCCCCCCCCCCCCCCCCCCCC(=O)N[C@@H](CO[C@H]1O[C@H](CO)[C@H](O)[C@H](O)[C@H]1O)[C@H](O)[C@H](O)CCCCCCCCCCCCCC [α‐GalCer, α‐galactosylceramide, reference compound] | – | – | – | – | –
3 | – | – | CCCCCCCCCCCCCCCCCCCCCCCCCC(=O)NC(COC1CCCC(O)C(O)C1O)C(O)C(O)CCCCCCCCCCCCCC (stereo not shown) [ThrCer 7] | – | do not mature DCs | – | – | greater activation of human iNKT cells
